Experimental data reported in patent US20230058623A1, “NOVEL HETEROARYL-TRIAZOLE COMPOUNDS AS PESTICIDES” (Bayer Aktiengesellschaft, priority 2019, published 2023).

Tests used:
Type in all cases: in vivo
[1] = test system: southern root-knot nematode (Meloidogyne incognita); assay: Meloidogyne incognita test; conditions: application rate 20 ppm; after 14 days
Protocol: Meloidogyne incognita—Test
Solvent: 125.0 parts by weight of acetone
To produce a suitable preparation of active compound, 1 part by weight of active compound is mixed with the stated amount of solvent, and the concentrate is diluted with water to the desired concentration.
Vessels are filled with sand, a solution of the active ingredient, a suspension containing eggs and larvae of the southern root-knot nematode (Meloidogyne incognita) and salad seeds. The salad seeds germinate and the seedlings grow. Galls develop in the roots.
After 14 days the nematicidal activity is determined based on the percentage of gall formation. 100% means no galls were found and 0% means the number of galls found on the roots of the treated plants was equal to that in untreated control plants.

[2] = test system: green peach aphid (Myzus persicae); assay: Myzus persicae oral test; conditions: 120 h, read-out: activity (mortality)
Outline: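 Readout: % mortality at day 5, where 100% = all aphids dead and 0% = none dead. Feeding via parafilm membrane over compound in IPL41 medium (33%+15% sugar); mixed-age population. Stock in acetone (1:100 w/w), water-diluted.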

[3] = test system: adult engorged female ticks (Rhipicephalus microplus); assay: Rhipicephalus (Boophilus) microplus injection test; conditions: 168 h, application rate 4 μg/tick, egg deposition after 7 days, read-out: activity (efficacy: infertile eggs)
Outline: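 Abdominal injection, 1 μL compound/DMSO, n=5 engorged adult females; climate-chamber incubation. Readout d7: fertile egg laying; doubtful eggs held to hatch (~42 d). % efficacy = infertile eggs (100% all infertile).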

[4] = test system: Rhipicephalus (Boophilus) microplus larvae (strain Parkhurst, resistant against synthetic pyrethroids); assay: Rhipicephalus (Boophilus) microplus in-vitro contact test, larval cattle tick; conditions: after 48 hours, read-out: activity (efficacy: larvae dead or moribund); for pest or weed control at 1 µg/cm2, 100 g/ha: application rate 1 μg/cm^2 (=100 g/ha); for pest or weed control at 5 µg/cm2, 500 g/ha: application rate 5 μg/cm^2 (=500 g/ha)
Outline: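 Pyrethroid-resistant Parkhurst larvae, 20–50 per tube, were kept 48 h at 27 °C and 85% relative humidity in glass tubes whose inner walls carried a dried acetone film of compound (900 ppm giving 5 μg/cm^2). Dead or moribund larvae, judged by loss of negative geotactic behavior, set percent efficacy.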

[5] = test system: adult cat fleas (Ctenocephalides felis); assay: Ctenocephalides felis in-vitro contact test, adult cat flea; conditions: application rate 5 μg/cm^2 (=500 g/ha), after 48 hours, read-out: activity (efficacy: fleas dead or moribund)
Outline: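 After 48 h of room-temperature exposure in tubes whose walls carried dried compound residue (5 μg/cm^2, from 900 ppm acetone solution), adult cat fleas (5-10 per tube) were heat-challenged at 45-50° C up to 5 min. Fleas unable to climb away were counted dead or moribund, expressed as % efficacy.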

[6] = test system: green peach aphid (Myzus persicae); assay: Myzus persicae spray test; conditions: foliar, 120 h, after 5 days, Chinese cabbage leaf disks; for mortality at 100 g/ha: application rate 100 g/ha, read-out: activity (mortality)
Outline: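 Percent kill was recorded 5 days after spraying. Test solutions, prepared with solvent and diluted in 1000 ppm emulsifier water, were applied to Brassica pekinensis leaf disks carrying mixed-instar green peach aphids.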

[7] = test system: fall armyworm larvae (Spodoptera frugiperda); assay: Spodoptera frugiperda spray test; conditions: 168 h, application rate 100 g/ha, after 7 days, maize leaf sections
Outline: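 Read-out: % larval mortality at day 7, where 100% means all killed and 0% none killed. Compound diluted in water with 1000 ppm emulsifier, sprayed onto Zea mays leaf sections; dried sections then infested with S. frugiperda larvae.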

[8] = test system: adult brown dog ticks (Rhipicephalus sanguineus); assay: Rhipicephalus sanguineus in-vitro contact test, adult brown dog ticks; conditions: application rate 5 μg/cm^2 (=500 g/ha), after 48 hours, read-out: activity (efficacy: ticks dead or moribund)
Outline: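 Read-out: % efficacy as dead or moribund ticks, judged 48 h after exposure by failure to climb away from a 45-50° C heating plate within 5 min. Tubes were coated with acetone solution (900 ppm = 5 μg/cm^2 surface dose) and held 5-10 adults each at room temperature.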

[9] = test system: adult flies Musca domestica strain WHO-N; assay: Musca domestica test (MUSCDO surface treatment & contact assay); conditions: surface concentration 20 mg/m^2, exposure 30 minutes, 24 hours after contact, read-out: efficacy (mortality)
Outline: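 Compound dissolved at 2 mg/ml in acetone with 2000 ppm RME, applied to glazed tile and dried; adult flies exposed on the surface for 30 min. Percent mortality scored 24 h after contact.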

[10] = test system: adult unfed cat fleas (Ctenocephalides felis); assay: Ctenocephalides felis oral test; conditions: 48 h, read-out: activity (mortality)
Outline: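 About 20 adult unfed cat fleas fed through parafilm on citrated cattle blood containing compound (from a DMSO concentrate). Blood held at 37° C, fleas at room temperature. Mortality in % scored after 2 days.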

[11] = test system: cattle ticks (Rhipicephalus microplus) strain Parkhurst, SP-resistant; assay: Rhipicephalus (Boophilus) microplus dip test; conditions: 168 h, application rate 100 ppm, egg deposition after 7 days, read-out: activity (efficacy: infertile eggs)
Protocol: Rhipicephalus (Boophilus) microplus—Dip Test
Test animal: cattle ticks (Rhipicephalus microplus) strain Parkhurst, SP-resistant
Solvent: dimethyl sulfoxide
To produce a suitable preparation of active compound, 10 mg of active compound are dissolved in 0.5 mL solvent, and the concentrate is diluted with water to the desired concentration.
This compound solution is pipetted into tubes. 8-10 engorged, adult, female cattle ticks (Rhipicephalus microplus) are placed in perforated tubes. These tubes are immersed in the aqueous compound solution until the ticks are completely moistened. After the liquid has drained off, the ticks are transferred to a filter paper in a plastic tray and stored in a climate chamber.
After 7 days egg deposition of fertile eggs is monitored. Eggs where fertility is not visible are stored in a climate chamber till hatching after about 42 days. An efficacy of 100% means all eggs are infertile; 0% means all eggs are fertile.

[12] = test system: larvae of the banded cucumber beetle (Diabrotica balteata); assay: Diabrotica balteata spray test; conditions: 168 h, after 7 days, wheat seeds, read-out: activity (efficacy: seedlings grown); for pest or weed control at 32 µg/disc, 100 g/ha: application rate 100 g/ha (=32 μg/well)
Outline: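 Efficacy (%) read 7 days after infesting treated seedlings with 10-20 banded cucumber beetle larvae, 100% meaning growth as in uninfected untreated control and 0% no growth. Test solutions in water containing 1000 ppm emulsifier were sprayed onto wheat seeds germinated for 1 day on agar.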

[13] = test system: larvae of the southern green stink bug (Nezara viridula); assay: Nezara viridula spray test; conditions: 96 h, after 4 days, barley plants; for mortality at 500 g/ha: application rate 500 g/ha, read-out: activity (mortality)
Outline: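 Barley plants sprayed with the active compound in emulsifier-containing water, then infested with stink bug larvae. Mortality scored in % after 4 days, with 100% meaning all insects killed.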

[14] = test system: brown planthopper (Nilaparvata lugens); assay: Nilaparvata lugens spray test; conditions: 96 h, application rate 500 g/ha, after 4 days, rice plants
Protocol: Nilaparvata lugens—Spray Test
To produce a suitable preparation of active compound, 1 part by weight of active compound is mixed with the stated amount of solvents and is diluted with water, containing an emulsifier concentration of 1000 ppm, to the desired concentration. Further test concentrations are prepared by dilution with emulsifier containing water.
Rice plants (Oryza sativa) are sprayed with a preparation of the active ingredient of the desired concentration and the plants are infested with the brown planthopper (Nilaparvata lugens).
After 4 days mortality in % is determined. 100% means all planthoppers have been killed and 0% means none of the planthoppers have been killed.

[15] = test system: adult mosquitoes Aedes aegypti strain MONHEIM; assay: Aedes aegypti test (AEDSAE surface treatment & contact assay); conditions: 24 hours after contact, read-out: efficacy (mortality); for mortality at 20 mg/m2: surface concentration 20 mg/m^2, exposure 30 minutes
Outline: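 Compound in acetone (2 mg/ml) with 2000 ppm RME dried onto glazed tile; adults exposed to the treated surface for 30 min. Percent mortality scored 24 h after contact.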

Row | Compound | activity (nematicidal activity based on gall formation) [1] [%] | mortality at 4 ppm [2] [%] | pest or weed control at 0.004 mg [3] [%] | pest or weed control at 1 µg/cm2, 100 g/ha [4] [%] | pest or weed control at 5 µg/cm2, 500 g/ha [4] [%] | pest or weed control at 5 µg/cm2 [5] [%] | mortality at 100 g/ha [6] [%] | mortality at 100 g/ha [7] [%] | pest or weed control at 5 µg/cm2, 500 g/ha [8] [%] | mortality at 20 mg/m2 [9] [%] | mortality at 100 ppm [10] [%] | pest or weed control at 100 ppm [11] [%] | pest or weed control at 32 µg/disc, 100 g/ha [12] [%] | mortality at 100 g/ha ([13]; application rate 100 g/ha) [%] | mortality at 500 g/ha [13] [%] | mortality at 500 g/ha [14] [%] | mortality at 20 mg/m2 [15] [%] | mortality at 4 mg/m2 ([15]; surface concentration 4 mg/m^2, exposure 30 minutes) [%] | mortality at 500 g/ha ([6]; application rate 500 g/ha) [%] | pest or weed control at 160 µg/disc, 500 g/ha ([12]; application rate 500 g/ha (=160 μg/well)) [%]
1 | COC1CCN(C(=O)c2ccc(-n3ncnc3[C@H](C)NC(=O)c3cc(Cl)cc(C(F)(F)F)c3)nc2)CC1 [Example I-30] | 90 | 100 | 100 | 100 | 100 | 80 | 90 | – | – | – | – | – | – | – | – | – | – | – | – | –
2 | Cc1nc([C@H](C)NC(=O)c2cc(C(F)(F)F)cc(C(F)(F)F)c2)n(-c2ncc(C(=O)N3C[C@@H](C)O[C@@H](C)C3)s2)n1 [Example I-107] | – | 100 | 100 | 100 | 100 | – | – | 100 | 100 | 80 to 100 | 100 | 100 | 100 | – | – | – | – | – | – | –
3 | Cc1nc([C@H](C)NC(=O)c2cc(Cl)cc(C(F)(F)F)c2)n(-c2cc(C(=O)N3CCC3)ccn2)n1 [Example I-28] | 90 | – | 80 | 90 | 90 | – | – | – | – | – | 100 | – | – | – | – | – | – | – | – | –
4 | Cc1nc([C@H](C)NC(=O)c2cc(Cl)cc(C(F)(F)F)c2)n(-c2cc(C(=O)N3CCCC3)ccn2)n1 [Example I-27] | 90 | – | 80 | 100 | 100 | – | – | – | 80 | – | 100 | – | – | – | – | – | – | – | – | –
5 | C[C@H](NC(=O)c1cc(C(F)(F)F)cc(C(F)(F)F)c1)c1ncnn1-c1ccc(C(=O)N2CCC(O)C2)cn1 (some centres unmarked) [Example I-13] | – | 100 | 100 | 100 | 100 | – | 100 | – | – | – | 100 | 80 | – | – | – | – | – | – | – | –
6 | CC1CN(C(=O)c2ccc(-n3ncnc3[C@H](C)NC(=O)c3cc(C(F)(F)F)cc(S(C)(=O)=O)c3)nc2)CCO1 (some centres unmarked) [Example I-81] | 100 | 100 | – | – | – | – | – | – | – | – | – | – | – | 100 | 100 | 100 | – | – | – | –
7 | C[C@H](NC(=O)c1cc(C(F)(F)F)cc(C(F)(F)F)c1)c1nc(C2CC2)nn1-c1ccc(C(=O)N2CCOCC2)cn1 [Example I-88] | 100 | – | – | 100 | 100 | 100 | 90 | 100 | 100 | 80 to 100 | – | – | 100 | – | 100 | – | 80 to 100 | – | – | –
8 | C[C@H](NC(=O)c1cc(Cl)cc(C(F)(F)F)c1)c1ncnn1-c1ccc(C(=O)N2CCOCC2)cn1 [Example I-1] | – | 100 | 100 | – | – | 100 | 100 | 100 | – | – | 100 | 80 | – | – | 100 | 100 | 80 to 100 | 80 to 100 | 100 | 100
9 | Cc1nc([C@H](C)NC(=O)c2cc(C(F)(F)F)cc(C(F)(F)F)c2)n(-c2ccc(C(=O)N3C[C@@H](C)O[C@H](C)C3)cn2)n1 [Example I-47] | – | 100 | 100 | 100 | 100 | 100 | 100 | 100 | 100 | – | 90 | 100 | – | – | – | – | – | – | – | –
